The values below come from US20220305020A1, “THE USE OF PARAXANTHINE TO REDUCE EXERCISE-INDUCED MENTAL FATIGUE” (Ingenious Ingredients, LP, priority 2021, published 2022).

The subject of experiment [1] is trained runners. In words: Berg-Wisconsin Card Sorting Test (BCST) before and after a mentally fatiguing 10-km run. In kind it is in vivo, human. As to conditions: 200 mg oral; after 10-km run compared to pre-exhaustive exercise. Here is the method:
(§1) Trained runners from local running and triathlon clubs and races were recruited to participate in this study. Cognitive performance was assessed prior and after a mentally fatiguing endurance run. Eligibility criteria included healthy trained runners or triathletes between 18-40 years of age, current (>6 months) history of run training, and documented evidence that they averaged 8 minute/mile or less running pace during a recent competition (e.g., completing a 5-km road race or marathon). Qualified runners were invited to attend a familiarization session which provided an overview of the study and participants informed consent to participate in the study. A total of 32 individuals responded to study advertisements and were assessed for eligibility, 28 completed a familiarization session, 13 met eligibility requirements, agreed to participant in the study and were randomized into treatments. 1 subject dropped out of the study due to not complying with the study protocol. 12 subjects (11 males, 1 female) ultimately finished the trial. Volunteers visited the lab a total of five times including one familiarization session and four experimental sessions. During the familiarization session, participants were explained the study protocol, provided informed consent, answered a medical questionnaire, and had height, weight, resting heart rate, and resting blood pressure. Males then had body composition determined using dual energy X-ray absorptiometry (DXA) while females took a urine pregnancy test prior to the DXA scan to verify they were not pregnant. Participants then took each cognitive function test three times to familiarize them to the tests and establish test reliability. Volunteers practiced running on the treadmill to be used in the study at race pace. Once completed, the participants then performed a graded maximal cardiopulmonary (VO2 peak) treadmill test to determine peak heart rate and aerobic capacity. Participants were also asked to maintain usual eating habits and avoid new dietary supplements for the duration of the study. Participants were also asked to prepare for each testing session as they would a 10-km road race and refrain from vigorous physical activity, alcohol intake, and over-the-counter medications for 24 hours as well as fast for 8-12 hours prior to reporting to the lab. […] Upon arriving at the lab, participants had weight, resting heart rate, and blood pressure determined. Participants then completed a side effects questionnaire, performed two cognitive function tests, the Psychomotor Vigilance Task Test (PVTT), a test that objectively assesses fatigue-related changes in alertness, and the Berg-Wisconsin Card Sorting Test (BCST), donated a fasting blood sample, and then ingested 1 of 4 randomly assigned oral supplements (PRE). Supplements were administered in a double blind, randomized, and crossover manner using a Balanced Latin Square method to counterbalance the order of treatment administration. Treatments included (1) 400 mg of placebo (PL, wheat flour, Shandong Bailong Chuangyuan Bio-tec Co. Ltd., Dezhou, China); (2) 200 mg of PL+200 mg of Caffeine (CSPC Innovation Pharmaceutical Co. Ltd., Shi Jiazhuang, China); (3) 200 mg of PL+200 mg of […], Ingenious Ingredients, L.P. Lewisville, Tex., USA) or (4) 200 mg CA+200 mg of PX (CA+PX). Supplements were prepared using good manufacturing practices and certified for content. Supplements were the same size and appearance and packaged in generically labeled bottles for administration in a double-blind manner. Participants ingested one capsule with 8-ounces of water of the assigned treatment. Participants then rested for 15-minutes and repeated these tests. Volunteers then performed a 10-km run at their self-determined pace. Heart rate was obtained every kilometer during the run. Once completed, participants donated a venous blood sample. Participants then completed the cognitive function tests and the side effects questionnaire. […]

A further experiment concerns Male, 51. In words: Uchida-Kraepelin test (UKT), serial calculation test of mental fatigue. The class given is in vivo, human. The settings on record: one subject; for increase of mean performance during the first 15-minutes of UKT / mental fatigue (gradual decrease in performance) during the second 15-minutes of UKT: 200 mg of paraxanthine or 200 ng of caffeine. Here is the method: […], consumed 200 mg of paraxanthine or […] or placebo, separated by one-week wash-out, prior to performing a serial calculation test, the Uchida-Kraepelin test (UKT), that is designed to measure mental fatigue. The test has been standardized and is widely used in clinical psychology, psychiatry, and occupational mental health practice. In this test, a subject is instructed to perform serial calculation of random numbers printed on a paper for 15 minutes. After a 5-minute rest, another 15 minutes of calculations are performed. The test subject is instructed to compute as many calculations as possible. Performance is assessed by 1-minute intervals.

The test system of experiment [2] is trained runners. In words: Psychomotor Vigilance Task Test (PVTT) before and after a mentally fatiguing 10-km run. In kind it is in vivo, human. As to the method:
as §1

The test system of the next experiment is BDNF. In words: BDNF levels in young and old rats after paraxanthine supplementation. In kind it is in vivo.
A further experiment deals with catalase. In words: Catalase levels in young and old rats after paraxanthine supplementation. The class given is in vivo.
Another experiment deals with glutathione. In words: Glutathione levels in young and old rats after paraxanthine supplementation. In kind it is in vivo.
Setting [3] is: 200 mg oral, compared to pre-exhaustive exercise.
Where [4] appears, read: old rats, high-dose paraxanthine group.
Setting [5] is: old rats, low-dose paraxanthine group.
The mark [6] stands for this setting: young rats, high-dose paraxanthine group.
The mark [7] stands for this setting: young rats, low-dose paraxanthine group.

Regarding `Cn1c(=O)c2c(ncn2C)n(C)c1=O` [caffeine, reference compound], in the experiment with trained runners [1], the “increase in number of correct responses in the BCST” value is recorded as “did not change”, the “increase in number of errors in the BCST” value turned out to be 19.4%, the “increase in number of preservative errors (PAR rules) in the BCST” value is 23.3% and the “increase in number of preservative errors in the BCST” value is 15.9%. Further, in the experiment on Male, 51, the “increase of mean performance during the first 15-minutes of UKT” value is recorded as 7% and the “mental fatigue (gradual decrease in performance) during the second 15-minutes of UKT” value was “failed to prevent metal fatigue”.
Regarding `Cn1c(=O)[nH]c2ncn(C)c2c1=O` [paraxanthine], the “increase in number of correct responses in the BCST” value with trained runners [1] was determined as 5.7%. The “reduction in number of errors in the BCST” value with trained runners [1] is given as 1.5%. Also, in the experiment with trained runners [1], the “reduction in number of preservative errors (PAR rules) in the BCST” value is given as 10.6%. The “reduction in number of preservative errors in the BCST” value in the experiment on trained runners [1] is 4.6%. Also, the “greater improvement in reaction time compared to caffeine, trial 2” value in the experiment on trained runners [2] (200 mg oral each, PVTT) is 25%. In addition, the “greater improvement in reaction time compared to caffeine, trial 10” value with trained runners [2] (200 mg oral each, PVTT) turned out to be 44%. In addition, the “greater improvement in reaction time compared to caffeine, trial 20” value with trained runners [2] (200 mg oral each, PVTT) is on record as 12%. The “improvement of reaction time in the PVT Test, early trials (trial 2)” value in the experiment on trained runners [2] (setting [3]) was 7.3%. Besides, the “improvement of reaction time in the PVT Test, late trials (trial 20)” value in the experiment with trained runners [2] (setting [3]) was found to be 10.9%. In the experiment on trained runners [2] (setting [3]), the “improvement of reaction time in the PVT Test, middle trials (trial 10)” value is 10.9%. Besides, the “increase of mean performance during the first 15-minutes of UKT” value in the experiment on Male, 51 is given as 15%. In addition, the “mental fatigue (gradual decrease in performance) during the second 15-minutes of UKT” value in the experiment with Male, 51 was “prevented mental fatigue”. In the experiment on Male, 51 (200 mg of paraxanthine), the “increase of mean performance during the second 15-minutes of UKT” value is 21%. Besides, the BDNF levels turned out to be 863.40 ± 35.21 pg/mL in the experiment with BDNF (setting [4]), 776.40 ± 18.54 pg/mL in the experiment on BDNF (setting [5]), 939.15 ± 42.34 pg/mL with BDNF (setting [6]) and 828.05 ± 35.03 pg/mL in the experiment on BDNF (setting [7]). Moreover, the catalase levels in the experiment on catalase (setting [4]) is 36.84±1.68 U/mL; in the experiment with catalase (setting [5]) it was 29.34±1.50 U/mL; in the experiment on catalase (setting [6]) it was 38.91±2.65 U/mL; with catalase (setting [7]), 30.24±1.58 U/mL. The glutathione levels in the experiment on glutathione (setting [4]) is 27.49 ± 0.84 µg/mL; in the experiment with glutathione (setting [5]), 22.27 ± 1.00 µg/mL; with glutathione (setting [6]), 34.41 ± 1.97 µg/mL; in the experiment on glutathione (setting [7]) it was 24.04 ± 1.74 µg/mL.
